{
  "source": "paper PMC6825211",
  "about": "(Nature Communications, 2019)",
  "key": {"MLD–STZ C57BL/6J mice": {"system": "MLD–STZ C57BL/6J mice", "experiment": "MLD–STZ model: β-cell apoptosis (TUNEL)", "format": "in vivo, mouse", "procedure": "C57Bl/6J mice were injected with 40 mg/kg streptozotocin or citrate buffer for 5 consecutive days. […] In d, basal glucose values were normalized to 100%. e Insulin secretion measured from retro-orbital blood draw during an ipGTT measured before (0 min) and 15 min after glucose injection; data are expressed as the ratio of secreted insulin at 15 min/0 min (stimulatory index). f The ratio of secreted insulin and glucose is calculated at fed state. g–i Mice were killed at day 35. g β-cell mass (given as percentage of the whole pancreatic section from ten sections spanning the width of the pancreas) and quantitative analyses from triple staining for h TUNEL or i Ki67, insulin, and DAPI expressed as percentage of TUNEL- or Ki67-positive β-cells ±SEM. An average number of 2331 (h), or 26369 (i) β-cells were counted. n = 9 mice/group for (a); n = 4–12 for (b); n = 5–15 for (c) and (d); n = 12–19 for (e); n = 8–14 for (f); n = 4–9 for (g); n = 4–11 for (h); and n = 6–11 mice/groupfor (i); all from three independent experiments).\nMouse pancreases were dissected and fixed in 4% formaldehyde at 4 °C for 12 h before embedding in paraffin[62]. Two-four-micrometer sections were deparaffinized, rehydrated, and incubated overnight at 4 °C with anti-PDX-1 (Abcam; #47267), anti-Glut2 (Chemicon; #07-1402), anti-Ki67 (Dako; #M7249), anti-phospho-Histone H3 (Ser10; Merck #06-570), and anti-NKX6.1 (DSHB, University of Iowa #F55A12[66]) in combination with TSA (Invitrogen #T30955), or for 2 h at room temperature with anti-insulin (Dako; A0546) antibodies (all at a dilution of 1:100, except anti-PDX-1, which was diluted 1:400) followed by fluorescein isothiocyanate (FITC)- or Cy3-conjugated secondary antibodies (Jackson ImmunoResearch Laboratories, West Grove, PA). Slides were mounted with Vectashield with 4′6-diamidino-2-phenylindole (DAPI) (Vector Labs). β-cell apoptosis was analyzed by the terminal deoxynucleotidyl transferase-mediated dUTP nick-end labeling (TUNEL) technique according to the manufacturer’s instructions (In Situ Cell Death Detection Kit, TMR red; Roche) and double stained for insulin. Fluorescence was analyzed by using a Nikon MEA53200 (Nikon GmbH, Dusseldorf, Germany) microscope, and images were acquired by using NIS-Elements software (Nikon)."}, "[1]": {"system": "obese diabetic Lepr db/db mice", "experiment": "db/db model: ipGTT", "format": "in vivo, mouse", "design": "AUC ipGTT: unit not given beside the values", "excerpt": "Data are representative of six mice per group (n = 6 for (a–f)). g–j Mice were killed at day 31. g β-cell mass (given as percentage of the whole pancreatic section from ten sections spanning the width of the pancreas; n = 5 mice/group) and quantitative analyses from triple stainings for (h) TUNEL, (i) Ki67, (j) pHH3, and (k) nuclear PDX1 expression, insulin, and DAPI expressed as percentage of TUNEL-, Ki67-, pHH3-, or nuclear PDX1-positive β-cells ± SEM. An average number of 13667 (h), 5937 (i), 7108 (j), or 4330 (k) β-cells were counted from n = 3–5 (h, i, k) or n = 5–6 (j) mice/group.\nFor intraperitoneal glucose tolerance tests, mice were fasted 12 h overnight and injected i.p. with glucose (40%; B.Braun, Melsungen, Germany) at a dose of 1 g/kg body weight. Blood samples were obtained at time points 0, 15, 30, 60, 90, and 120 min for glucose measurements by using a Glucometer. For i.p. insulin tolerance tests, mice were injected with 0.75 U/kg body weight recombinant human insulin (Novolin, Novo Nordisk) after 4–5-h fasting, and glucose concentration was determined with the Glucometer. Insulin secretion was measured before (0 min) and after (15 and 30 min) i.p. injection of glucose (2 g/kg) and measured by using ultrasensitive mouse Elisa kit (ALPCO Diagnostics, Salem, NH)."}, "[2]": {"system": "obese diabetic Lepr db/db mice", "experiment": "db/db model: β-cell proliferation (Ki67)", "format": "in vivo, mouse", "conditions": "dbdb mice"}, "[3]": {"system": "isolated islets from WT C57Bl/6 mice", "experiment": "β-cell apoptosis (TUNEL), WT islets, IL-1β/IFNγ 72 h, neratinib added for last 24 h", "format": "cell-based, mouse", "conditions": "for TUNEL%: Cytokines+Nera"}, "[4]": {"experiment": "MALDI imaging mass spectrometry of pancreas sections", "format": "in vivo, mouse"}, "PAK2": {"target": "PAK2 (Homo sapiens, UniProt Q13177)", "sequence (Q13177 whole entry, species assumed)": "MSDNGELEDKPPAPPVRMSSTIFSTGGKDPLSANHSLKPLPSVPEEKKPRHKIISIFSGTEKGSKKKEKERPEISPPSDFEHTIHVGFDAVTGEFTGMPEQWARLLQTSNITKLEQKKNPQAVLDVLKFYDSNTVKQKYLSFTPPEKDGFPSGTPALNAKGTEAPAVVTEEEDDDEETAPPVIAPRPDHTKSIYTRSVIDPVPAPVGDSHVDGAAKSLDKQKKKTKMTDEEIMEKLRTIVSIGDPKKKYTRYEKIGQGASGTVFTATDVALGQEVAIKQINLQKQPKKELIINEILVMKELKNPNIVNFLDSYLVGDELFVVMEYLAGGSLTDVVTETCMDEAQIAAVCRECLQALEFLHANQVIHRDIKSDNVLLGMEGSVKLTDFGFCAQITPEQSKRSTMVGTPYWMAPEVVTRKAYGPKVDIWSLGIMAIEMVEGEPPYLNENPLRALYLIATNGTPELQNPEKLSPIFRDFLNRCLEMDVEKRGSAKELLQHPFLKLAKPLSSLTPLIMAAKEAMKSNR", "experiment": "biochemical", "conditions": "read-out: % inhibition by neratinib"}, "INS-1E cells": {"system": "INS-1E cells", "experiment": "Cytotoxicity CellTiter-Glo assay", "conditions": "all tested concentrations, 24 h"}, "CDK1": {"target": "CDK1 (Homo sapiens, UniProt P06493)", "experiment": "Nanosyn kinase profiling, mobility shift assay", "conditions": "read-out: % inhibition by neratinib"}, "FAK": {"target": "FAK (Homo sapiens, UniProt Q05397)", "experiment": "Nanosyn kinase profiling, mobility shift assay", "conditions": "read-out: % inhibition by neratinib"}, "FGFR1": {"target": "FGFR1 (Homo sapiens, UniProt P11362)", "experiment": "Nanosyn kinase profiling, mobility shift assay", "conditions": "read-out: % inhibition by neratinib"}, "IRAK4": {"target": "IRAK4 (Homo sapiens, UniProt Q9NWZ3)", "sequence (Q9NWZ3 whole entry)": "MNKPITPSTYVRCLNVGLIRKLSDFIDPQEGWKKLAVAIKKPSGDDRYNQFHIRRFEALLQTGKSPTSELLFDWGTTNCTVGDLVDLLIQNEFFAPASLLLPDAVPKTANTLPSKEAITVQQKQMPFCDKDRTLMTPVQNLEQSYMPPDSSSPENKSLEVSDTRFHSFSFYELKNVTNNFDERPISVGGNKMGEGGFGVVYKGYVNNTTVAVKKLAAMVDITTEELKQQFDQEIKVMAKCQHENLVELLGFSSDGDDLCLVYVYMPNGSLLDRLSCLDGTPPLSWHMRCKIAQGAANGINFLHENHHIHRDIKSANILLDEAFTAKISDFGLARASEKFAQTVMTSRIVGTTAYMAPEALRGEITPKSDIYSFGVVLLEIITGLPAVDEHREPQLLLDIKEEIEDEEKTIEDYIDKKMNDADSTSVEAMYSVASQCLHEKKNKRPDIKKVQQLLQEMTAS", "experiment": "Nanosyn kinase profiling, mobility shift assay", "conditions": "read-out: % inhibition by neratinib"}, "PI3-KINASE-ALPHA": {"target": "PI3-KINASE-ALPHA (Homo sapiens, UniProt P42336)", "sequence (P42336 whole entry)": "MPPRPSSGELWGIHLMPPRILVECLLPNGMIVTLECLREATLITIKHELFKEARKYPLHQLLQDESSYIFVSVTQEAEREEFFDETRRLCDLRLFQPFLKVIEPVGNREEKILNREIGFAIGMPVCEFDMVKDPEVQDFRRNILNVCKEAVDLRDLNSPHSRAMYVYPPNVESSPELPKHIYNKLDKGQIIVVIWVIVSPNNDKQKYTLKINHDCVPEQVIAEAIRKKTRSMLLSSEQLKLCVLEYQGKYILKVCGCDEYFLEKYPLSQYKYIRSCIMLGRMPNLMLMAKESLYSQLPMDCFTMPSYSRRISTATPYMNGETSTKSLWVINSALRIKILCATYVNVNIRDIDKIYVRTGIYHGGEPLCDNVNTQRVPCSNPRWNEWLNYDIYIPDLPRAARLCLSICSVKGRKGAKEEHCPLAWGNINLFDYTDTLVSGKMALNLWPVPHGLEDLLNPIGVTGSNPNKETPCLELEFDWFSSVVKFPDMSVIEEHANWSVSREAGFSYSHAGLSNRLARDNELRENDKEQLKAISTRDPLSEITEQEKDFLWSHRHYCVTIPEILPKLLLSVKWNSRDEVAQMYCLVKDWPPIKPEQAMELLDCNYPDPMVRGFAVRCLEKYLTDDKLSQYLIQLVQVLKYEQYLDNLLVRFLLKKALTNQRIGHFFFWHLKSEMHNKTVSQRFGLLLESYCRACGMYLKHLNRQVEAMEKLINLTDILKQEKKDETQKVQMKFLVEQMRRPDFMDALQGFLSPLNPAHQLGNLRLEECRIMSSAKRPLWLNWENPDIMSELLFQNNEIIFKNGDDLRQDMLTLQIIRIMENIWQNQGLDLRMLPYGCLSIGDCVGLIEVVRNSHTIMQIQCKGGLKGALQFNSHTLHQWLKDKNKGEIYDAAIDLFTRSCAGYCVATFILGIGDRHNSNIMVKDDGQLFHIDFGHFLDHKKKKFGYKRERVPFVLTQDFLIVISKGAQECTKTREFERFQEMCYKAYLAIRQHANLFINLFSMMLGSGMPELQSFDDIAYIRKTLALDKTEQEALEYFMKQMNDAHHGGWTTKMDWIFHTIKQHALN", "sequence (P27986 whole entry partner)": "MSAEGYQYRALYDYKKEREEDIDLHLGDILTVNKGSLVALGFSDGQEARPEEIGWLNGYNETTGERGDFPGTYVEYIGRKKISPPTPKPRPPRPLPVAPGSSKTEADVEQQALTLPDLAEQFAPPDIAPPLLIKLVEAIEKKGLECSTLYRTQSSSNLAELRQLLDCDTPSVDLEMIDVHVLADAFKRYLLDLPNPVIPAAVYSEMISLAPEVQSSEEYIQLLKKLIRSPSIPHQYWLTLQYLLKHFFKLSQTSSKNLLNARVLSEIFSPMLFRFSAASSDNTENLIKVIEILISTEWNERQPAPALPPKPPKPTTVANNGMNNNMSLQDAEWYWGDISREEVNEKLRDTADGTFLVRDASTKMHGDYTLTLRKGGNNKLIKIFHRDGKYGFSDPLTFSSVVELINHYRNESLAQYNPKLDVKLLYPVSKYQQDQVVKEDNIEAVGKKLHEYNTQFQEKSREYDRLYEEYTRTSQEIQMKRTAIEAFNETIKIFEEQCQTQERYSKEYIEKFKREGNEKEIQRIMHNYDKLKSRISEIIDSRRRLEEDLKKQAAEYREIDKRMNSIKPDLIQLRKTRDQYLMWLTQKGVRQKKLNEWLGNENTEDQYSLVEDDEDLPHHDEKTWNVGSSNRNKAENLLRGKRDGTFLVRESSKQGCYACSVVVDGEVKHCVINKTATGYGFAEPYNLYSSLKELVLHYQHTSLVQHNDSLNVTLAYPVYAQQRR", "experiment": "Nanosyn kinase profiling, mobility shift assay", "conditions": "read-out: % inhibition by neratinib"}, "PKC-ALPHA": {"target": "PKC-ALPHA (Homo sapiens, UniProt P17252)", "experiment": "Nanosyn kinase profiling, mobility shift assay", "conditions": "read-out: % inhibition by neratinib"}, "ROCK1": {"target": "ROCK1 (Homo sapiens, UniProt Q13464)", "sequence (Q13464 whole entry)": "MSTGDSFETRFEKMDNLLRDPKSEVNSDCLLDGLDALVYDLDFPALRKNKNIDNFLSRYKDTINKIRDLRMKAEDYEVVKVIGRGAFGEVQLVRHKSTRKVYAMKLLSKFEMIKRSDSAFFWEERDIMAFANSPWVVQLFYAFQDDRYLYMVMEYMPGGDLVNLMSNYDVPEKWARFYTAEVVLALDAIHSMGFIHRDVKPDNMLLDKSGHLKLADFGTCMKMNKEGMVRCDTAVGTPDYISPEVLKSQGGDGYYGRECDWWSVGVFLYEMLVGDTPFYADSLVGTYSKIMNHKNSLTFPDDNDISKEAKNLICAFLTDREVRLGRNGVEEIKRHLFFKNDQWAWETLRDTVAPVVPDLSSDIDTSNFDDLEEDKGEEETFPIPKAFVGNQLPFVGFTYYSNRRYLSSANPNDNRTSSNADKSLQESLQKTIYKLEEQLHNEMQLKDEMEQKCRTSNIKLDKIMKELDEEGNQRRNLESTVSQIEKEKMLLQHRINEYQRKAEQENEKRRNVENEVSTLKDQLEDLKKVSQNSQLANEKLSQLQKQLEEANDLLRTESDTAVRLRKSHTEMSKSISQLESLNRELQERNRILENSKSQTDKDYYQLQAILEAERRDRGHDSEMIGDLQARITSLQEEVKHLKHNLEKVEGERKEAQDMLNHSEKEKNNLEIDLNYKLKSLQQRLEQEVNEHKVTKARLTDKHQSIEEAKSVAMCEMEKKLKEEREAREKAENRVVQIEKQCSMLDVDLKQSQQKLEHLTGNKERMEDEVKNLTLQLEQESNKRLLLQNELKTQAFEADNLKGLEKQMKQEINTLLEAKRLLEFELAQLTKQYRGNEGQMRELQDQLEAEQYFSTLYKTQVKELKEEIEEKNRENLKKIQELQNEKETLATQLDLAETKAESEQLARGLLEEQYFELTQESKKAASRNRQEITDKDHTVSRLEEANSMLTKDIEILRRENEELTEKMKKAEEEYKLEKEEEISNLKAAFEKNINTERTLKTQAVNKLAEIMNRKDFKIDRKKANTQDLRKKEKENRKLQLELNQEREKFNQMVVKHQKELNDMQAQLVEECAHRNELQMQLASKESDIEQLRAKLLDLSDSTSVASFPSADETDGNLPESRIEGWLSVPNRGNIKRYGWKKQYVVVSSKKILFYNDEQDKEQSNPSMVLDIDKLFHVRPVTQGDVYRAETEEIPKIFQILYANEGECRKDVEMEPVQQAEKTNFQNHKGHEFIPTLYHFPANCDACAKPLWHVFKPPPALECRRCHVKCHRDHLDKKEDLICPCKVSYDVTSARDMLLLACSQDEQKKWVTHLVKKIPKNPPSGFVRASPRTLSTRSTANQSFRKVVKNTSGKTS", "experiment": "Nanosyn kinase profiling, mobility shift assay", "conditions": "read-out: % inhibition by neratinib"}},
  "note": "“And” between values parts separate entries of the source, which are not always exact repeats. Equal entries are not always repeated.",
  "data": [
    {"smiles": "CCOc1cc2ncc(C#N)c(Nc3ccc(OCc4ccccn4)c(Cl)c3)c2cc1NC(=O)/C=C/CN(C)C", "note": "[neratinib]", "values": [
      {"measurement": "TUNEL%/ mouse", "setting": "MLD–STZ C57BL/6J mice; NeraCtr group (no STZ), MEAN", "value": 0.08333, "unit": "%"},
      {"measurement": "TUNEL%/ mouse", "setting": "MLD–STZ C57BL/6J mice; NeraCtr group (no STZ), individual mice", "value": "0.3333% and 0%"},
      {"measurement": "TUNEL%/ mouse", "setting": "MLD–STZ C57BL/6J mice; NeraSTZ group, MEAN", "value": 0.24, "unit": "%"},
      {"measurement": "TUNEL%/ mouse", "setting": "MLD–STZ C57BL/6J mice; NeraSTZ group, individual mice", "value": "0% and 0.2857% and 1.2987% and 0.3546% and 0.7008%"},
      {"measurement": "β-cell apoptosis", "setting": "MLD–STZ C57BL/6J mice; STZ mice, day 35", "value": "reduced β-cell apoptosis"},
      {"measurement": "basal glucose levels after an overnight fast", "setting": "[1]; db/db", "value": "unchanged"},
      {"measurement": "glucose levels in ipGTT", "setting": "[1]; db/db", "value": "lower glucose levels at all time points measured"},
      {"measurement": "AUC ipGTT", "setting": "[1]; insert 8b, individual mice", "value": "30540 and 34635 and 37620 and 33592.5 and 28230 and 32955"},
      {"measurement": "MEAN AUC ipGTT", "setting": "[1]; insert 8b, mean", "value": 32928.8},
      {"measurement": "ipGTT", "setting": "[1]; time after glc 0, MEAN", "value": 167.333, "unit": "mg/dL"},
      {"measurement": "ipGTT", "setting": "[1]; time after glc 0, individual mice", "value": "133 mg/dL and 142 mg/dL and 168 mg/dL and 224 mg/dL and 154 mg/dL and 183 mg/dL"},
      {"measurement": "ipGTT", "setting": "[1]; time after glc 15, MEAN", "value": 424.5, "unit": "mg/dL"},
      {"measurement": "ipGTT", "setting": "[1]; time after glc 15, individual mice, 600 mg/dl is maximum reading", "value": "425 mg/dL and 445 mg/dL and 468 mg/dL and 413 mg/dL and 308 mg/dL and 488 mg/dL"},
      {"measurement": "ipGTT", "setting": "[1]; time after glc 30, MEAN, 600 mg/dl is maximum reading", "value": 520.5, "unit": "mg/dL"},
      {"measurement": "ipGTT", "setting": "[1]; time after glc 30, individual mice, 600 mg/dl is maximum reading", "value": "481 mg/dL and ≥ 600 mg/dL and 476 mg/dL and 485 mg/dL"},
      {"measurement": "ipGTT", "setting": "[1]; time after glc 60, MEAN", "value": 340.167, "unit": "mg/dL"},
      {"measurement": "ipGTT", "setting": "[1]; time after glc 60, individual mice", "value": "301 mg/dL and 355 mg/dL and 388 mg/dL and 367 mg/dL and 321 mg/dL and 309 mg/dL"},
      {"measurement": "ipGTT", "setting": "[1]; time after glc 90, MEAN", "value": 226, "unit": "mg/dL"},
      {"measurement": "ipGTT", "setting": "[1]; time after glc 90, individual mice", "value": "221 mg/dL and 183 mg/dL and 280 mg/dL and 259 mg/dL and 141 mg/dL and 272 mg/dL"},
      {"measurement": "ipGTT", "setting": "[1]; time after glc 120, MEAN", "value": 170.833, "unit": "mg/dL"},
      {"measurement": "ipGTT", "setting": "[1]; time after glc 120, individual mice", "value": "191 mg/dL and 139 mg/dL and 210 mg/dL and 133 mg/dL and 213 mg/dL"},
      {"measurement": "Ki67%/ mouse", "setting": "[2]; Mean", "value": 1.047, "unit": "%"},
      {"measurement": "Ki67%/ mouse", "setting": "[2]; individual mice", "value": "0.4896% and 1.365% and 0.6515% and 1.681%"},
      {"measurement": "TUNEL%", "setting": "[3]; MEAN", "value": 0.4111, "unit": "%"},
      {"measurement": "TUNEL%", "setting": "[3]; individual replicates", "value": "0.4072% and 0.3399% and 0.4861%"},
      {"measurement": "β-cell survival after cytokine-induced apoptosis", "setting": "[3]; IL-1β/IFNγ 48 h, then 10 μM neratinib another 24 h", "value": "fully restored β-cell survival"},
      {"measurement": "neratinib in pancreatic tissue", "setting": "[4]; WT mice, 4 h after i.p. injection", "value": "clearly detected"},
      {"measurement": "neratinib signal in pancreas tissue sections", "setting": "[4]; db/db mice, 4-week daily i.p. injection", "value": "specific signal was obtained"},
      {"measurement": "inhibition at 10 µM", "setting": "PAK2", "value": 101, "unit": "%"},
      {"measurement": "basal cell viability (steady-state ATP)", "setting": "INS-1E cells", "value": "no evidence of interference on basal cell viability"},
      {"measurement": "inhibition at 10 µM", "setting": "CDK1", "value": 14, "unit": "%"},
      {"measurement": "inhibition at 10 µM", "setting": "FAK", "value": 8, "unit": "%"},
      {"measurement": "inhibition at 10 µM", "setting": "FGFR1", "value": 26, "unit": "%"},
      {"measurement": "inhibition at 10 µM", "setting": "IRAK4", "value": 17, "unit": "%"},
      {"measurement": "inhibition at 10 µM", "setting": "PI3-KINASE-ALPHA", "value": 18, "unit": "%"},
      {"measurement": "inhibition at 10 µM", "setting": "PKC-ALPHA", "value": 7, "unit": "%"},
      {"measurement": "inhibition at 10 µM", "setting": "ROCK1", "value": -48, "unit": "%"}
    ]}
  ]
}
